Paper PMC7584679 (Journal of Advanced Research, 2020)

What follows are compounds tested against hTS (recombinant human TS, thymidylate synthase) (Homo sapiens, UniProt P04818) (assay: UV absorbance at […] nm, TS activity).
Type: biochemical

Sequence of hTS (recombinant human TS, thymidylate synthase) (P04818 2-313): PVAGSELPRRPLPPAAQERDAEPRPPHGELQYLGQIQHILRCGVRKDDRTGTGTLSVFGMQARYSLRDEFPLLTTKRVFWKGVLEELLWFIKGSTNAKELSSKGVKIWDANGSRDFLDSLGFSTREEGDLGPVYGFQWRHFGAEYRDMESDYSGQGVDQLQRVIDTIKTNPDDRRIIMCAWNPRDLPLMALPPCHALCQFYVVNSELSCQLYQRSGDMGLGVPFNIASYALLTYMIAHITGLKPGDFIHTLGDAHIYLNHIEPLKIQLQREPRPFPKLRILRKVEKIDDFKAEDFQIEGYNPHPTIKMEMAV

Row | Compound | IC50 [nM]
1 | O=c1[nH]cc(S(=O)(=O)Nc2cccc(-c3nnc(-c4ccccc4)o3)c2)c(=O)[nH]1 [7a, N-(3-(5-phenyl-1,3,4-oxadiazol-2-yl)phenyl)-2,4-dihydroxypyrimidine-5-sulfuramide] | 3150 ± 610
2 | Cc1ccccc1-c1nnc(-c2cccc(NS(=O)(=O)c3c[nH]c(=O)[nH]c3=O)c2)o1 [7b, N-(3-(5-(o-tolyl)-1,3,4-oxadiazol-2-yl)phenyl)-2,4-dihydroxypyrimidine −5-sulfonamide] | 2750 ± 290
3 | Cc1cccc(-c2nnc(-c3cccc(NS(=O)(=O)c4c[nH]c(=O)[nH]c4=O)c3)o2)c1 [7c, N-(3-(5-(m-tolyl)-1,3,4-oxadiazol-2-yl)phenyl)-2,4-dihydroxypyrimidine-5-sulfonamide] | 1460 ± 370
4 | Cc1ccc(-c2nnc(-c3cccc(NS(=O)(=O)c4c[nH]c(=O)[nH]c4=O)c3)o2)cc1 [7d, N-(3-(5-(p-tolyl)-1,3,4-oxadiazol-2-yl)phenyl)-2,4-dihydroxypyrimidine-5-sulfonamide] | 1790 ± 120
5 | O=c1[nH]cc(S(=O)(=O)Nc2cccc(-c3nnc(-c4ccccc4Cl)o3)c2)c(=O)[nH]1 [7e, N-(3-(5-(2-chlorophenyl)-1,3,4-oxadiazol-2-yl)phenyl)-2,4-dihydroxypyrimidine-5-sulfonamide] | 650 ± 430
6 | O=c1[nH]cc(S(=O)(=O)Nc2cccc(-c3nnc(-c4cccc(Cl)c4)o3)c2)c(=O)[nH]1 [7f, N-(3-(5-(3-chlorophenyl)-1,3,4-oxadiazol-2-yl)phenyl)-2,4-dihydroxypyrimidine-5-sulfonamide] | 110 ± 30
7 | O=c1[nH]cc(S(=O)(=O)Nc2cccc(-c3nnc(-c4ccc(Cl)cc4)o3)c2)c(=O)[nH]1 [7g, N-(3-(5-(4-chlorophenyl)-1,3,4-oxadiazol-2-yl)phenyl)-2,4-dihydroxypyrimidine-5-sulfonamide] | 440 ± 100
8 | O=c1[nH]cc(S(=O)(=O)Nc2cccc(-c3nnc(-c4ccccc4F)o3)c2)c(=O)[nH]1 [7h, N-(3-(5-(2-fluorophenyl)-1,3,4-oxadiazol-2-yl)phenyl)-2,4-dihydroxypyrimidine-5-sulfonamide] | 5180 ± 730
9 | O=c1[nH]cc(S(=O)(=O)Nc2cccc(-c3nnc(-c4cccc(F)c4)o3)c2)c(=O)[nH]1 [7i, N-(3-(5-(3-fluorophenyl)-1,3,4-oxadiazol-2-yl)phenyl)-2,4-dihydroxypyrimidine-5-sulfonamide] | 4610 ± 1100
10 | O=c1[nH]cc(S(=O)(=O)Nc2cccc(-c3nnc(-c4ccccc4Br)o3)c2)c(=O)[nH]1 [7k, N-(3-(5-(2-bromophenyl)-1,3,4-oxadiazol-2-yl)phenyl)-2,4-dihydroxypyrimidine-5-sulfonamide] | 1160 ± 370
11 | O=c1[nH]cc(S(=O)(=O)Nc2cccc(-c3nnc(-c4cccc(Br)c4)o3)c2)c(=O)[nH]1 [7l, N-(3-(5-(3-bromophenyl)-1,3,4-oxadiazol-2-yl)phenyl)-2,4-dihydroxypyrimidine-5-sulfonamide] | 930 ± 280
12 | O=c1[nH]cc(S(=O)(=O)Nc2cccc(-c3nnc(-c4ccc(Br)cc4)o3)c2)c(=O)[nH]1 [7m, N-(3-(5-(4-bromophenyl)-1,3,4-oxadiazol-2-yl)phenyl)-2,4-dihydroxypyrimidine-5-sulfonamide] | 1290 ± 120
13 | Nc1nc2[nH]cc(CCc3ccc(C(=O)N[C@@H](CCC(=O)O)C(=O)O)cc3)c2c(=O)[nH]1 [PTX] | 2440 ± 880
